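Following 48 hours of exposure in 96-well plates, responses at five concentrations were used to interpolate endpoints linearly. At the GI50, growth is halved.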 Active and inactive are the calls of the source. No stated cut-off is given here; in the data, active = GI50 up to about 1.1 µM and inactive = higher.
How the values were obtained:
Assay in all cases: DTP human tumour cell line panel, 48 h
786-0 = system: 786-0
A498 = system: A498
A549 = system: A549
ACHN = system: ACHN
CAKI-1 = system: CAKI-1
CCRF-CEM = system: CCRF-CEM
COLO 205 = system: COLO 205
DU-145 = system: DU-145
EKVX = system: EKVX
HCC 2998 = system: HCC 2998
HCT-116 = system: HCT-116
HCT-15 = system: HCT-15
HL-60 = system: HL-60
HOP-62 = system: HOP-62
HOP-92 = system: HOP-92
HT-29 = system: HT-29
Hs-578T = system: Hs-578T
IGROV-1 = system: IGROV-1
K562 = system: K562
KM12 = system: KM12
LOX IMVI = system: LOX IMVI
M14 = system: M14
MCF7 = system: MCF7
MDA-MB-231 = system: MDA-MB-231
MDA-MB-435 = system: MDA-MB-435
MDA-N = system: MDA-N
MOLT-4 = system: MOLT-4
Malme-3M = system: Malme-3M
NCI-H226 = system: NCI-H226
NCI-H23 = system: NCI-H23
NCI-H460 = system: NCI-H460
NCI-H522 = system: NCI-H522
NCI/ADR-RES = system: NCI/ADR-RES
OVCAR-3 = system: OVCAR-3
OVCAR-4 = system: OVCAR-4
OVCAR-5 = system: OVCAR-5
OVCAR-8 = system: OVCAR-8
PC-3 = system: PC-3
RPMI-8226 = system: RPMI-8226
RXF 393 = system: RXF 393
SF-268 = system: SF-268
SF-295 = system: SF-295
SF-539 = system: SF-539
SK-MEL-28 = system: SK-MEL-28
SK-MEL-2 = system: SK-MEL-2
SK-MEL-5 = system: SK-MEL-5
SK-OV-3 = system: SK-OV-3
SN12C = system: SN12C
SNB-19 = system: SNB-19
SNB-75 = system: SNB-75
SR = system: SR
SW-620 = system: SW-620
T47D = system: T47D
TK-10 = system: TK-10
U-251 = system: U-251
UACC-257 = system: UACC-257
UACC-62 = system: UACC-62
UO-31 = system: UO-31

With `O=C(C=P(c1ccccc1)(c1ccccc1)c1ccccc1)c1ccccc1-c1ccccc1C(=O)C=P(c1ccccc1)(c1ccccc1)c1ccccc1` the GI50 (786-0) was 34.4 nM (active), the GI50 (A498) was 26.4 nM (active) and the GI50 (A549) was 12.8 nM (active). For the same compound, the GI50 (ACHN) was 27.2 nM (active), the GI50 (CAKI-1) was 163 nM (active) and the GI50 (CCRF-CEM) was < 12.8 nM (active). For the same compound, the GI50 (COLO 205) was 10.3 nM (active), the GI50 (DU-145) was 18.4 nM (active) and the GI50 (EKVX) was 185 nM (active). For the same compound, the GI50 (HCC 2998) was 31.9 nM (active), the GI50 (HCT-116) was 22.2 nM (active) and the GI50 (HCT-15) was 280 nM. The GI50 (HL-60) was < 10 nM (active), the GI50 (HOP-62) was 31.1 nM (active) and the GI50 (HOP-92) was 12.7 nM (active). For the same compound, the GI50 (HT-29) was 23.6 nM (active), the GI50 (Hs-578T) was 31.9 nM (active) and the GI50 (IGROV-1) was < 15 nM (active). The GI50 (K562) was < 10 nM (active), the GI50 (KM12) was < 10 nM (active) and the GI50 (LOX IMVI) was 18 nM (active). For the same compound, the GI50 (M14) was 35.2 nM (active), the GI50 (MCF7) was < 10 nM (active) and the GI50 (MDA-MB-231) was 21.5 nM (active). The GI50 (MDA-MB-435) was 26.7 nM (active), the GI50 (MDA-N) was 22.9 nM (active) and the GI50 (MOLT-4) was 12.4 nM (active). For the same compound, the GI50 (Malme-3M) was < 10 nM (active), the GI50 (NCI-H226) was 22.1 nM (active) and the GI50 (NCI-H23) was 18 nM (active). The GI50 (NCI-H460) was 24.8 nM (active), the GI50 (NCI-H522) was 14 nM (active) and the GI50 (NCI/ADR-RES) was 373 nM (active). For the same compound, the GI50 (OVCAR-3) was < 10 nM (active), the GI50 (OVCAR-4) was 29 nM (active) and the GI50 (OVCAR-5) was 46.2 nM (active). For the same compound, the GI50 (OVCAR-8) was < 10 nM (active), the GI50 (PC-3) was < 10 nM (active) and the GI50 (RPMI-8226) was < 10 nM (active). The GI50 (RXF 393) was 20.8 nM (active), the GI50 (SF-268) was 35.1 nM (active) and the GI50 (SF-295) was 26.9 nM (active). For the same compound, the GI50 (SF-539) was 32.8 nM (active), the GI50 (SK-MEL-28) was 178 nM (active) and the GI50 (SK-MEL-2) was 21.2 nM (active). For the same compound, the GI50 (SK-MEL-5) was 11.1 nM (active), the GI50 (SK-OV-3) was 21.6 nM (active) and the GI50 (SN12C) was 19.3 nM (active). The GI50 (SNB-19) was 28.8 nM (active), the GI50 (SNB-75) was 20.6 nM (active) and the GI50 (SR) was 14.3 nM (active). For the same compound, the GI50 (SW-620) was 27 nM (active), the GI50 (T47D) was < 10 nM (active) and the GI50 (TK-10) was < 10 nM (active). For the same compound, the GI50 (U-251) was 17.3 nM (active), the GI50 (UACC-257) was < 10 nM (active) and the GI50 (UACC-62) was < 16.3 nM (active). For the same compound, the GI50 (UO-31) was 228 nM (active).

From ChEMBL document CHEMBL1201862, “PubChem BioAssay data set” (2004)
